Experiments:
βGK mRNA = assay: Endogenous βGK mRNA levels in isolated islets of wild type and βIRKO mice; type: cell-based, mouse; details: 16.7 mM glucose or 5 mU insulin/ml
Protocol: (§1) RNA was prepared 60 min after start of stimulation. Amounts of insulin, βGK and β-actln mRNA were quantified by comparative RT-PCR. […] Data are shown as mean values ± S.E. (n=3). (B-D) On-line monitoring of βGK promoter-driven GFP expression (white bars) and insulin promoter-driven DsRed expression (black bars) in co-transfected HIT cells (B,C) or islet cells (B,D).
(§2) Insulin-producing HIT-T15 cells were obtained from ATCC. HIT cells were reported to show glucose responsiveness at subphysiological concentrations between 0.1 and 2 mM (Sharma et al., 1995). HIT cells were grown in RPMI 1640 medium supplemented with 100 units/ml penicillin, 100 μg/ml streptomycin, 2 mM glutamine and 10% fetal calf serum at 5% CO2 and 37° C. Pancreatic islets were isolated from normally fed male Wistar rats and from mice by collagenase digestion. […]
(§3) RNA Analysis Levels of βGK mRNA were analyzed by RNase-protection assays and comparative RT-PCR. […] Quantification of the protected complexes was performed by phosphorimaging. […] Levels of μGK mRNA were analyzed by RT-PCR using primers 5′-[…]-3′(SEQ ID NO: 1) and 5′-[…]-3′(SEQ ID NO: 2) for characterizing μGK mRNA in HIT cells and primers 5′-[…]-3′(SEQ ID NO: 3) and 5′-[…]-3′(SEQ ID NO: 4) for μGK mRNA in rat and mouse pancreatic islets and islet cells. Levels of μ-actin mRNA were analyzed by RT-PCR using primers 5′-[…]-3′(SEQ ID NO: 5) and 5′-[…]-3′(SEQ ID NO: 6). […]

insulin mRNA = assay: Endogenous insulin mRNA levels in isolated islets of wild type and βIRKO mice; type: cell-based, mouse; details: 16.7 mM glucose or 5 mU insulin/ml
Protocol: as §1, §2, §3

insulin
endogenous βGK mRNA levels upon stimulation (βGK mRNA; islets from βIRKO mice): no increase
endogenous βGK mRNA levels upon stimulation (βGK mRNA; islets of wild type mice): increase
endogenous insulin mRNA levels upon stimulation (insulin mRNA; islets from βIRKO mice): no increase
endogenous insulin mRNA levels upon stimulation (insulin mRNA; islets of wild type mice): increase
